# Measured values published in patent publication US10238710B2, “Peptide having anti-inflammatory, osteogenic and hair growth promoting activities, and use of same” (CAREGEN CO., LTD., priority 2014, dated 2019).
# Assays:
# TNFR = experiment: Receptor binding assay (TNFR), ELISA; conditions: peptide coated 50 μg/25 μl, O.D. 450 nm, positive control TNF-α
# [1] = system: human hair follicle dermal papilla cells (HFDPC); experiment: Cell proliferation assay (SRB), HFDPC; format: cell-based; conditions: 1, 10 and 50 μg/ml, 72 hours
# Protocol: (§1) In order to observe the cell proliferation effect on human hair follicle dermal papilla cells, human hair follicle germinal matrix cells, and human umbilical vein endothelial cells, which are main hair cells, each type of cells were seeded on a 96-well plate at a density of 3×10^3 cells/well, followed by incubation under conditions of 37° C. and 5% CO2 for 24 hours. After the medium was exchanged with the same culture medium completely excluding serum, the cells were treated with the peptides at different concentrations (1 μg/ml, 10 μg/ml, and 50 μg/ml), followed by incubation under the same conditions for 72 hours. After the incubation supernatant was removed, the cells were immobilized using ethanol, and washed three times with phosphate buffer saline (PBS). The wash solution was removed, and the cells were stained through the treatment with colorimetric SRB solution. After the cells were sufficiently washed with 1% acetic acid, the cells were observed using a microscope to observe the state of living cells. The absorbance was read at UV light of 560 nm, thereby measuring the survival conditions of cells
# RAW264.7 cells = experiment: Proliferation assay of macrophages treated with TNF-α (SRB); format: cell-based, mouse; conditions: 100 ng/ml TNF-α and 50 μg/ml peptide, 72 hours
# Protocol: The mouse macrophage cell line, raw 264.7 cells were seeded on a 48-well plate at a density of 1×10^4 cells/well. After stabilization for 24 hours, the cells were incubated in a serum-free medium for 6 hours, and then simultaneously treated with 100 ng/ml TNF-α and 50 μg/ml peptide, followed by incubation for 72 hours. After the completion of the incubation, the supernatant was removed and the cells were immobilized using ethanol, and after the cell immobilization was ended, the cells were washed three times with phosphate buffer saline (PBS). After the wash solution was removed, the cells were treated with colorimetric SRB solution, and sufficiently washed with 1% acetic acid. Then, the cells were observed using a microscope to observe the conditions of living cells. The absorbance for the solution decolorized with 20 mM tris was read at UV light of 560 nm, thereby measuring the survival conditions of cells.
# IL-1β = IL-1β ELISA in THP-1 cells treated with TNF-α; format: cell-based, human; conditions: 10 μg/ml pre-treatment 30 minutes, 50 ng/ml TNF-α, 24 hours
# Protocol: (§2) The human monocytes, THP-1 cells were seeded on a 24-well plate at a density of 2×10^6 cells/well. After incubation overnight, the cells were pre-treated with the samples at 10 μg/ml for 30 minutes, and treated with 50 ng/ml TNF-α, followed by incubation for 24 hours. The cell incubation medium was obtained, followed by centrifugation at 13,000 rpm for 10 minutes at 4° C., and then the supernatant was separated. ELISA was carried out using IL-1b and IL-8 ELISA kit (R&D system).
# Ha3-II and keratin 14 = experiment: RT-PCR of keratinocyte differentiation markers in HaCaT cells; format: cell-based, human; conditions: HaCaT, 0.1, 1 and 10 μg/ml, 24 hours
# Protocol: The cells were treated with the peptides at different concentrations (0.1 μg/ml, 1 μg/ml, and 10 μg/ml), and then incubated in an incubator at 37° C. for 24 hours. […] RT-PCR was carried out using primers of respective markers (Ha3-II and keratin 14) and PCR pre-mix (Intron) to measure the changes in the expression of the markers.
# Target-specific primer sequences used in PCR for keratinocyte differentiation markers were as follows: Ha3-II forward primer sequence, 5′-[…]-3′ and Ha3-II reverse primer, 5′-[…]-3′ (annealing temperature, 60° C.); Keratin14 forward primer sequence, 5′-[…]-3′ and Keratin14 reverse primer, 5′-[…]-3′ (annealing temperature, 60° C.)
# PI3K = experiment: Western blotting of cell signaling material, PI3K; format: cell-based, human; conditions: HFDPC, 1 and 10 μg/ml, 30 minutes and 60 minutes
# Protocol: In order to observe the changes in the phosphorylation of ERK and the expression of PI3K, which are main signaling materials involved in cell proliferation in the human hair follicle dermal papilla cells, the cells were treated with the peptides of the present invention for 30 minutes and 60 minutes, and then subjected to western blotting using specific antibodies, thereby observing the pERK and PI3K changes. The test was carried out using anti-pERK antibody (Santa Cruz Biotechnology, USA) and anti-pPI3K antibody (Santa Cruz Biotechnology, USA).
# The cells were treated with the cell lysis buffer to obtain a lysate, followed by protein quantification, and then western blotting was performed with respect to Phospho-ERK (pERK), PI3K, and β-catenin.
# KGF = experiment: Western blotting of hair growth protein KGF; format: cell-based, human; conditions: HFDPC, 0.1-50 μg/ml, 24 hours
# Protocol: In order to observe the changes in the expression of IGF1, KGF, and Wnt3a, which are proteins involved in the development of hair roots in the human hair follicle dermal papilla cells, the cells were treated with the peptides of the present invention for 24 hours, and then subjected to western blotting using specific antibodies, thereby observing the changes in hair growth-related proteins.
# The cells were stabilized by the incubation overnight, and then treated with the peptides at different concentrations (0.1-50 μg/ml) for 24 hours. The cells were treated with the cell lysis buffer to obtain a lysate, followed by protein quantification, and then western blotting was performed with respect to IGF-1, KGF, and Wnt3a.
# The test was carried out using anti-IGF-1 antibody (Santa Cruz Biotechnology, USA), anti-KGF antibody (Santa Cruz Biotechnology, USA), and anti-Wnt3a antibody (Santa Cruz Biotechnology, USA).
# [2] = system: human hair follicle germinal matrix cells (HFGMC); experiment: Cell proliferation assay (SRB), HFGMC; format: cell-based; conditions: 1, 10 and 50 μg/ml, 72 hours
# Protocol: as §1
# [3] = system: alkaline phosphatase (ALP); conditions: MC3T3-E1, three days, RT-PCR
# Protocol: MC3T3-E1 (mouse osteoblast line) cells were seeded on a 6-well plate at a cell density of 1×10^5 cells/well. The cells incubated overnight were treated with the peptides at different concentrations (10 and 50 μg/ml), followed by incubation in an incubator at 37° C. for three days (positive control: 100 ng/ml BMP2 (Cell signaling)). After the incubation-completed cells were collected, the cells were treated with RNA extraction solution (Easy Blue, Intron) to prepare RNA, and then cDNA was synthesized using RT pre-mix (Intron). PCR was carried out using primers of respective markers (OPG, ALP, BSP) and PCR pre-mix (Intron).
# Target-specific primer sequences used in PCR for osteogenic differentiation markers were as follows: OPG forward primer sequence, 5′-[sequence]-3′ and OPG reverse primer, 5′-[sequence]-3′ (annealing temperature, 60° C.); ALP forward primer sequence, 5′-[sequence]-3′ and ALP reverse primer, 5′-[sequence]-3′ (annealing temperature, 60° C.); BSP forward primer sequence, 5′-[sequence]-3′ and BSP reverse primer, 5′-[sequence]-3′ (annealing temperature, 60° C.)
# 5 μl of PCR product was loaded on 1% agarose gel, followed by electrophoresis, and then the bands were investigated using Gel-Doc.
# NF-κB = experiment: Western blotting in HaCaT cells, nuclear translocation of NF-κB activated by TNF-α; format: cell-based, human; conditions: peptide at different concentrations
# bone sialoprotein (BSP) = experiment: RT-PCR of osteogenic differentiation marker BSP; format: cell-based, mouse; conditions: MC3T3-E1, three days
# IL-8 = IL-8 ELISA in THP-1 cells treated with TNF-α; format: cell-based, human; conditions: 10 μg/ml pre-treatment 30 minutes, 50 ng/ml TNF-α, 24 hours
# Protocol: as §2
substance,measurement,setting,value
NH2-Ala-Cys-Arg-Ser-Ala-Ile-Gly-Arg-Pro-Cys-COOH (H-ACRSAIGRPC-OH; cysteine pairing not given here) [SEQ ID NO: 1],binding affinity to TNFR,TNFR,high binding affinity
same,"cell proliferation, HFDPC",[1],increased in a concentration-dependent manner
same,proliferation of RAW264.7 cells increased with TNF-α treatment,RAW264.7 cells,reduced
same,expression of IL-1β increased by TNF-α treatment,IL-1β,inhibited
same,mRNA expression levels of differentiation markers Ha3-II and keratin 14,Ha3-II and keratin 14,keratinocyte differentiation promoting effect
same,level of PI3K,PI3K,increased
same,expression of KGF,KGF,increased
same,"cell proliferation, HFGMC",[2],increased in a concentration-dependent manner
same,expression of alkaline phosphatase (ALP),[3],increased
same,nuclear translocation of NF-κB activated by TNF-α treatment,NF-κB,reduced
same,expression of bone sialoprotein (BSP),bone sialoprotein (BSP),increased
same,expression of IL-8 increased by TNF-α treatment,IL-8,inhibited
